Values quoted from earlier work as cited in patent US6730664B1, “Formulations for parenteral use of estramustine phosphate and sulfoalkyl ether cyclodextrins” (Pharmacia Italia S.p.A., priority 1999, dated 2004).

Conditions: patients, slow intravenous injection or bolus, 300 mg/day

C[C@]12CC[C@@H]3c4ccc(OC(=O)N(CCCl)CCCl)cc4CC[C@H]3[C@@H]1CC[C@@H]2OP(=O)(O)O [estramustine phosphate, Estramustine phosphate]
side effects at the peripheral intravenous injection sites: thrombophlebitis and local irritations
